In patent US11406699B2 (priority 2019, dated 2022):
Where “and” joins values, the source holds several entries; their conditions need not be identical. Identical values can stand only once.

Experiments:
SINV = format: cell-based, Sindbis virus
VEEV TC-83 [1] = test: microbe, parasite or virus in culture; format: cell-based; conditions: Venezuelan equine encephalitis virus, Vero, read-out: effective concentration 50% (EC50)
EEEV FL93-939 TaV-nLuc = test: microbe, parasite or virus in culture; format: cell-based; conditions: Eastern equine encephalitis virus, Vero, 24 h
VEEV ZPC738 TaV-nLuc = test: microbe, parasite or virus in culture; format: cell-based; conditions: Venezuelan equine encephalitis virus, Vero, 24 h
in vitro = conditions: African green monkey
CHIKV = format: cell-based, chikungunya virus
VEEV TC-83 [2] = format: cell-based, Venezuelan equine encephalitis virus

Compound: CC(=O)c1c(O)c(C)c(O)c(Cc2c(O)c3c(c(C(=O)/C=C/c4ccccc4)c2O)OC(C)(C)C=C3)c1O [Rottlerin]
- decrease in SINV replication (SINV): 5 log
- EC50 (VEEV TC-83 [1]): < 1 µM
- EC50 (EEEV FL93-939 TaV-nLuc): 1.7 µM
- EC50 (VEEV ZPC738 TaV-nLuc): 1.1 µM
- CC50 (in vitro): 63 µM
- decrease in CHIKV replication (CHIKV): 3 log
- decrease in VEEV TC-83 replication (VEEV TC-83 [2]): 2 log and 3 log
